How the values were obtained:
PPE [1] = molecular target: T1, PPE (Sus scrofa, UniProt P00772); assay: 1H NMR analysis of incubation of PPE with clavulanic acid derivative (ester hydrolysis); type: biochemical, porcine; details: D2O/CD3CN, 303K
Experimental: NMR experimental procedures. ^1H NMR analyses were performed at 500 MHz on a Bruker AMX500 instrument. Samples (450-500 μl) of PPE (ca. 3 mg) and clavulanic acid derivative (ca 3 mg) were dissolved in 10% (v/v) CD3CN in D2O. The temperature was regulated at 303K and the spectra were referenced to internal MeCN at 2.05 ppm.
Their identity was subsequently confirmed by doping experiments.

[2] = molecular target: porcine pancreatic elastase PPE (Sus scrofa, UniProt P00772); assay: Enzyme assay: hydrolysis of Suc-AlaAlaProAla-pNa by PPE, measured at 405 nm; type: biochemical; details: for IC50: substrate 100 μM, 25° C., pH 7.5, 10% DMSO; for inhibitory potency with pre-incubation of the clavam with PPE: with pre-incubation versus without
Sequence of porcine pancreatic elastase PPE (P00772 27-266): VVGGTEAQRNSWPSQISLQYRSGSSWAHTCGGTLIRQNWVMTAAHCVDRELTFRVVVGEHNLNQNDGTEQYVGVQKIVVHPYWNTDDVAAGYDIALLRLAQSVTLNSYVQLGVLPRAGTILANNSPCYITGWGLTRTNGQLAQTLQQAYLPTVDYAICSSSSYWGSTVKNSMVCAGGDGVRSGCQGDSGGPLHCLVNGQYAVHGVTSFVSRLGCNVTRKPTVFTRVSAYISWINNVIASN
Experimental: Enzyme assays. Enzyme assays were performed using a Shimadzu 1601PC spectrophotometer equipped with a thermostatted multi-cell transport system. The hydrolysis of the para-nitroanilide substrate (Suc-AlaAlaProAla-pNa, 100 μM) was measured at 405 nm and at a constant temperature of 25° C. in 0.1 M Tris-HCl buffer (pH 7.5). At least quadruplicate measurements of the initial rate were determined at five inhibitor concentrations and data analysed using standard kinetic equations programmed into Excel (Microsoft Corp.) and Grafit (Erithacus Inc.). To aid solubility the clavam inhibitors were dissolved in DMSO to give a final concentration in the assay of 10% (v/v).
It is likely that the lack of inhibition observed from clavulanic acid (1) is due to the presence of a negative charge on the carboxylic acid on C-3 which prevents binding within the PPE active site.

PPE [3] = molecular target: T1, PPE; assay: Electrospray ionisation mass spectrometry of PPE incubated with one equivalent of inhibitor (adduct formation); type: binding, porcine; details: time points 3 minutes to 5 hours, unbuffered
Experimental: Electrospray ionisation mass spectrometry. Electrospray ionisation mass spectra were recorded on a Micromass BioQ II-ZS triple quadruple mass spectrometer equipped with an electrospray interface. PPE at 80 pmol μl^−1 was incubated with one equivalent of inhibitor. Samples (5 μl) were removed at fixed time points, diluted with water:acetonitrile (1:1 v/v) containing 0.2% (v/v) formic acid to give a protein concentration of 5 pmol μl^−1 and analysed immediately. The resulting electrospray mass spectra were calibrated relative to native porcine pancreatic elastase PPE and processed using the MaxEnt algorithm and the spectra reported as centroided data.

T1 sequence (P00772 27-266): as above

SMILES | PPE-catalysed hydrolysis of the ester side chain (1H NMR) (PPE [1]) | inhibition ([2]; pre-incubation of clavam with PPE 15 minutes) [%] | inhibition ([2]; pre-incubation of clavam with PPE 30 minutes) [%] | inhibition ([2]; pre-incubation of clavam with PPE 60 minutes) [%] | IC50 ([2]; standard assay conditions) [µM] | inhibitory potency with pre-incubation of the clavam with PPE [2] | mass increments / adducts relative to native PPE (ESIMS) (PPE [3]) | inhibition of PPE ([2]; standard assay conditions)
O=C(OCc1ccccc1)[C@H]1/C(=C/CO)O[C@@H]2CC(=O)N21 [compound 9] | just visible after a one hour incubation period | 43 | 87 | 93 | 184 | increased significantly | formation of an initial acyl-enzyme complex | 
O=C(O)[C@H]1/C(=C/CO)O[C@@H]2CC(=O)N21 [compound 1, Clavulanic acid, reference compound] |  |  |  |  |  |  | no mass increments | did not inhibit PPE
O=C(OCc1ccc([N+](=O)[O-])cc1)[C@H]1/C(=C/CO)O[C@@H]2CC(=O)N21 [compound 10] |  |  |  |  | 187 | increased significantly | formation of the 70 and 88 Da adducts appeared to be slightly faster | 
